How the values were obtained:
Mouse cortical neurons = test: Neuronal survival in transwell co-culture with astrocytes under t-buOOH oxidative stress (Hoechst/calcein); type: cell-based
Description: Primary cultures of astrocytes were prepared as previously published (Lin et al., 2005). C57BL/6 male mice were purchased from the National Institute of Aging and maintained in standard accredited housing conditions at the University of Texas Health Science Center Animal Facility. Animal protocols were approved by our Institutional Animal Care Use Committee. Astrocytes were cultured in DMEM F-12 media (Invitrogen, # 11039-021) supplemented with 2 mM glutamine, nonessential amino acids, 10% fetal calf serum, 100 U/ml penicillin/streptomycin (Cambrex BioScience Walkersville, #17-602E) and 1% fungizone (Invitrogen, #15290-018) at 37° C. in an atmosphere containing 5% CO2. The culture medium was changed every 3-5 days. Confluent cells were gently removed by a trypsin EDTA solution and re-plated on 35 mm glass bottom chambers (Bioptechs #04200415C) prior to imaging experiments 3-4 days later. Cells were maintained in plastic culture flasks until the final re-seeding of cells onto a glass bottom chamber and were passed up to 3 times for astrocyte only experiments. For co-culture experiments with neurons, primary astrocytes were plated directly onto corning transwell-clear permeable supports, which physically separates the two cell-types by ˜1 mm (# 07-200-170, Fisher scientific). Astrocytes were cultured in transwells until they were ˜70% confluent. Mouse cortical neurons (Cambrex Bio Science Walkersville Inc., # M-CX-300) were then cultured onto 6 well mat-tek glass bottom plates and maintained in Neurobasal Medium (Invitrogen, # 21103-049), 2 mM L-Glutamine (Cambrex BioScience Walkersville, #17-605E), 100 U/ml penicillin/streptomycin (Cambrex BioScience Walkersville, #17-602E) and B-27 with (Invitrogen, #17504-044) and without antioxidants (Invitrogen, #10889-038), which controls glia contamination to less than 0.5%. The transwell supports with cultured astrocytes were placed in the neuron seeded glass bottom chambers for four days before imaging and both cell types were then maintained in neuronal media. For neuron only experiments, the astrocytes on the transwell supports were removed prior to treatments and imaging.
Sensitivity of neurons to oxidative stress was assessed by treating cultures with 100 μM tert-butyl hydrogen peroxide (t-BuOOH, Sigma, #B-2633) for 3 hours. Neurons were then stained with Hoechst 33342 (10 μg/ml, Molecular Probes, #H-3570) to label all cell nuclei and calcein AM (2 μM, #C3100, Molecular Probes, #C3100). […] Calcein fluorescence is only observed in live cells that have maintained their plasma membrane integrity. Images were acquired on an inverted Nikon TE300 microscope with a Hamamatsu ORCAER camera and Open lab software (Improvision).
To determine whether P2Y-R enhanced mitochondrial metabolism in astrocytes affected neuronal resistance to oxidative stress, we prepared co-cultures of neurons and astrocytes using corning transwell-clear permeable supports, which physically separates the two cell-types by ˜1 mm (# 07-200-170, Fisher scientific). Primary cultures of astrocytes were directly prepared in transwell supports until they were ˜70% confluent. Mouse cortical neurons were then cultured onto glass bottom mattek plates and maintained in B-27/Neurobasal Medium to control glia contamination to less than 0.5% (Invitrogen). After four days, co-cultures were treated with t-buOOH (100 μM) for 4 hours with and without pre-stimulation of ATP (2 μM, 10 minutes). Cells were then stained with the DNA intercalating dye Hoechst 33342 (10 μg/ml, Molecular Probes, #H-3570) and calcein AM (2 μM, Molecular Probes, #C3100). […] We then tested the neuroprotective affects of isoform specific purinergic ligands 2-MeSADP(P2Y1-R) and UTP(P2Y2-R). FIG. 6A depicts histogram plots of the percentage of neurons alive when cocultured with young or old astrocytes. FIG. 6B depicts histogram plots of the percentage of neurons alive pretreated with either 2-MeSADP (2 μM) or UTP (50 μM) for 10 min. […]

astrocytes [1] = test: O2 consumption assay (Clark electrode respirometry); type: cell-based, mouse
Description: O2 consumption was monitored with a Clark electrode (Mitocell S200 micro respirometry system; Strathkelvin Instruments). Astrocytes (500 μl at 10^5 cells/ml) were loaded into a 500 μl MT200A Respirometer Chamber, suspended by a fixed-speed solid-state magnetic stirrer inside the chamber and maintained at 37° C. by a circulating water bath. O2 was monitored for 4 minutes before injecting 5 μl of ATP (200 μM) into the chamber. O2 consumption was then monitored for another 4 minutes. Changes in O2 levels were calculated by respirometry software. For control recordings, 5 μl of buffer was injected into chamber. Oligomycin astrocytes were treated with oligomycin (0.01 μM) for 30 minutes before trypsinization and loading into chamber.
To further investigate the importance of mitochondrial metabolism on the protective effect of P2Y-R activation, we first measured the rate of O2 consumption for astrocytes with and without P2Y-R activation. Primary cultures of astrocytes were grown to ˜70% confluency, gently removed by trypsin EDTA and resuspended in PBS buffer. Astrocytes (10^5 cells/ml) were then loaded into a 500 μl Respirometer Chamber MT200A) and maintained at 37° C. by a circulating water bath. FIG. 5A depicts plots of O2 levels in suspended astrocytes as labeled. FIG. 5B depicts a histogram showing the average change in O2 consumption with 2 μM ATP compared to untreated cells (control). Bars on the right show O2 consumption of Astrocytes are preloaded 0.01 uM Oligomycin (30 minutes).

astrocytes [2] = test: Intracellular ATP determination (luciferin-luciferase); type: cell-based, mouse
Description: Intracellular ATP was measured using a luciferin-luciferase kit (Invitrogen, #22066). Plated astrocytes were trypsinized and washed 3× with PBS buffer (GIBCO #14190). An aliquot of cells was set aside to measure the cell density with a hemocytometer. The cells were then suspended in a lysate buffer (4 mM EDTA and 100 mM Tris, pH 7.75) and immediately heated to 100° C. for 5 minutes to minimize enzymatic changes in ATP levels. The supernatant was collected after a 10,000 g centrifugation for 1 minute and used with the luciferin/luciferase kit according to the manufacturer's instructions. Luminescence was measured with a Synergy™ HT Multi-Detection Microplate Reader (BioTek). ATP levels were normalized by cell density.
Our next approach to investigate the role of mitochondrial metabolism was to directly measure ATP levels in cultures astrocytes using a luciferin-luciferase assay (Invitrogen). Astrocytes were cultured as described above, trypsinized and washed with buffer. The cells were then suspended in a lysate buffer and immediately heated to 100° C. (5 min) to minimize enzymatic changes in ATP levels. After centrifugation, the ATP dependent luminescence of supernatant was measured with a microplate reader (Biotek). FIG. 5C depicts histograms of the direct measurement of intracellular ATP levels relative to untreated cells (control), P2Y-R stimulated (MeADP), then the same measurements in the presence of oligomycin (oligo) or ruthenium 360 (Ru360). We estimated that the resting intracellular ATP concentration in cultured astrocytes was 0.31±0.14 μM ATP/10^4 cells (n=3). […] Finally, we tested whether ruthenium 360 (Ru360; Calbiochem), a polycation that inhibits the electrogenic mitochondrial Ca^2+ uniporter, affected mitochondrial ATP production.

**Q.** For `Nc1ncnc2c1ncn2[C@@H]1O[C@H](COP(=O)(O)OP(=O)(O)OP(=O)(O)O)[C@@H](O)[C@H]1O` [ATP], which neuronal survival (Mouse cortical neurons; co-cultured with old astrocytes, ATP 2 μM 10 minutes pre-stimulation, t-buOOH 100 μM 4 hours) is on record?
**A.** 87±2%

**Q.** What about the neuronal survival (Mouse cortical neurons; co-cultured with young astrocytes, ATP 2 μM 10 minutes pre-stimulation, t-buOOH 100 μM 4 hours) of the same compound?
**A.** 87±2%

**Q.** What about the “rate of O2 consumption” value (astrocytes [1]; bolus of ATP, 2 μM final concentration) of the same compound?
**A.** 3.67 ± 0.3 nmol/min

**Q.** What does the source list for `CC[C@H]1/C=C/C=C/C[C@@H](C)[C@H](O)[C@@](C)(O)C(=O)[C@@H](C)[C@H](O)[C@@H](C)C(=O)[C@@H](C)[C@H](O)[C@@H](C)/C=C/C(=O)O[C@@H]2[C@H](C)[C@H](CC1)O[C@]1(CC[C@H](C)[C@H](C[C@@H](C)O)O1)[C@H]2C` [oligomycin]?
**A.** neuronal survival (Mouse cortical neurons; anti-oxidant-free B-27, oligomycin 0.01 μM 30 minutes + 2-MeSADP, t-buOOH 3 hours): 26±3%; neuronal survival (Mouse cortical neurons; anti-oxidant-free B-27, oligomycin 0.01 μM 30 minutes, t-buOOH 3 hours): 25±3%; effect on P2Y1-R (2-MeSADP) mediated increases in ATP (astrocytes [2]; oligomycin 0.01 μM 30 min pretreatment + 2-MeSADP): completely inhibited; resting levels of ATP, % of control (astrocytes [2]; oligomycin 0.01 μM, 30 min): 82.6%±3.2 % of control; rate of O2 consumption (astrocytes [1]; oligomycin 0.01 μM 30 minutes + extracellular ATP): 1.19 ± 0.27 nmol/min; rate of O2 consumption (astrocytes [1]; oligomycin 0.01 μM, 30 minutes): 0.97 ± 0.21 nmol/min

**Q.** What does the source list for `CSc1nc(N)c2ncn([C@@H]3O[C@H](COP(=O)(O)OP(=O)(O)O)[C@@H](O)[C@H]3O)c2n1` [2-MeSADP]?
**A.** % neurons alive (neuronal survival) (Mouse cortical neurons; anti-oxidant-free B-27, 2-MeSADP 2 μM 10 minutes, t-buOOH 100 μM 3 hours): 43±3%; % neurons alive (Mouse cortical neurons; co-cultures, 10 min pre-treatment 2-MeSADP 2 μM or UTP 50 μM, 4.5 hours of t-buOOH): 70±2%; intracellular ATP levels (astrocytes [2]; 2-MeSADP 2 μM for 10 minutes): 0.39±0.16 μM ATP/10^4 cells

Reference: patent publication US8618074B2, “GPCR enhanced neuroprotection to treat brain injury” (Board of Regents of the University of Texas System, priority 2007, dated 2013)
